These results are taken from publication PMC3076703 (Pharmacogenetics and genomics, 2010).

The conditions of series [1]: human; cited from earlier work.
The target of the next series is T1, UGT1A8 (Homo sapiens, UniProt Q9HAW9).
T1 sequence (Q9HAW9 26-530): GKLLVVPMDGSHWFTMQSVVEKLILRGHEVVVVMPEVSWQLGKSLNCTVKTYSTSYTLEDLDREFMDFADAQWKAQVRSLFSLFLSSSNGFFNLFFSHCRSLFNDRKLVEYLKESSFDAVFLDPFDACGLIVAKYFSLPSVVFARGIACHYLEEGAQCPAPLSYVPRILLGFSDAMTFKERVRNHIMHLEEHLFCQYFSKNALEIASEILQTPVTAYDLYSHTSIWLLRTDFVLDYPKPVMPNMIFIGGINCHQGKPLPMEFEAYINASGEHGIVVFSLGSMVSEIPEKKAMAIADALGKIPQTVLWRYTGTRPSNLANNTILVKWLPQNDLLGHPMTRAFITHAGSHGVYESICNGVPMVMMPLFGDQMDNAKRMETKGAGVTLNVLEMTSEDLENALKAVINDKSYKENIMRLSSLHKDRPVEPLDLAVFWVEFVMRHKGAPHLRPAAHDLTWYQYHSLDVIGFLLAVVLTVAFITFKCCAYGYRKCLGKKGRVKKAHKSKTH
The series is described as follows: Glucuronidation assay, UGT1A8-overexpressing HEK293 cell homogenate. The format is in vitro ADME.

In another series the target is T2, UGT2B17 (Homo sapiens, UniProt O75795).
T2 sequence (O75795 24-530): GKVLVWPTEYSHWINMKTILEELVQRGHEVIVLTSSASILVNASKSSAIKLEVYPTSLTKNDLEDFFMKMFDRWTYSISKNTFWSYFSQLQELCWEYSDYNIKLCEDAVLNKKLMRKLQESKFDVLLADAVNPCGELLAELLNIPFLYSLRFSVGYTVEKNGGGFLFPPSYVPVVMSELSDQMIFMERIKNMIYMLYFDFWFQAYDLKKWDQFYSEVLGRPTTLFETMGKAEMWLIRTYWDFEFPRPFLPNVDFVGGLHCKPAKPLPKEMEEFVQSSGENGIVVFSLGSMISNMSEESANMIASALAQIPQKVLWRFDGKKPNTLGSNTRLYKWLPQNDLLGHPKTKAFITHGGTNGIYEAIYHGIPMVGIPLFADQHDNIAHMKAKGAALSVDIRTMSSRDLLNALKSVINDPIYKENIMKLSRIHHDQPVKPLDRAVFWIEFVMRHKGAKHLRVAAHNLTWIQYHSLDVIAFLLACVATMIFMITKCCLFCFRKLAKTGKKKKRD
The class given is in vitro ADME.

Another series addresses T3, UGT1A4^24Pro/48Leu (Homo sapiens, UniProt P22310).
T3 sequence (P22310 29-534): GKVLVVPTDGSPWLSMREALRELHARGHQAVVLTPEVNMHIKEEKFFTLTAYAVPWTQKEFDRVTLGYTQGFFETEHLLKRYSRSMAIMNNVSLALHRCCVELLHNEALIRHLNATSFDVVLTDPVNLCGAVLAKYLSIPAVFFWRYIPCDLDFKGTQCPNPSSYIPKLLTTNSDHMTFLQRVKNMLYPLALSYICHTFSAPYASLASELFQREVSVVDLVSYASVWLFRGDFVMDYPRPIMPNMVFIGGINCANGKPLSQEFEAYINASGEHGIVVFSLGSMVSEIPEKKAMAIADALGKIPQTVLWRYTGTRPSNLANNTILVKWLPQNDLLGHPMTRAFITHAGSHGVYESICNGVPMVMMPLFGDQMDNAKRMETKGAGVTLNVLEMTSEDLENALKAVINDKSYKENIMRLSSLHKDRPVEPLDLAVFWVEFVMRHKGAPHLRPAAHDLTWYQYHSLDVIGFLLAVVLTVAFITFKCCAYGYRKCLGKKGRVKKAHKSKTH
The series is described as follows: Glucuronidation assay, UGT1A4 24Pro/48Leu-overexpressing HEK293 cell homogenate. The class given is in vitro ADME.

The target of a further series is T4, UGT1A4^24Thr/48Leu (Homo sapiens, UniProt P22310).
T4 sequence (P22310 29-534): T3 sequence (P22310 29-534)
The experiment in a line: Glucuronidation assay, UGT1A4 24Thr/48Leu-overexpressing HEK293 cell homogenate. The class given is in vitro ADME.

In the next series the target is T5, UGT1A4^24Pro/48Val (Homo sapiens, UniProt P22310, L48V).
T5 sequence (P22310 29-534 L48V): T3 sequence (P22310 29-534) with L20V
The class given is in vitro ADME.

The test system of series [2] is UGTs 1A1, 1A3, 1A6, 1A7, 1A9, 2B4, 2B7, 2B10, 2B11, 2B15. The format is in vitro ADME, human. To be noted: other UGTs screened; up to 1 mg of UGT-overexpressing cell homogenate.
For series [3] the following is noted: individuals taking exemestane; cited from earlier work.

The structures appear in SMILES notation. Substitutions are numbered along the chain they refer to.

Turning to `C=C1C[C@@H]2[C@H](CC[C@]3(C)C(=O)CC[C@@H]23)[C@@]2(C)C=CC(=O)C=C12` [exemestane, 6-methylenandrosta-1,4-diene-3,17-dione], in series [1], the “excreted as parent compound” value was 1%, the fecal excretion entry is “around 42%” and the urinary excretion entry is “around 42%”.
Consider `C=C1C[C@H]2[C@@H]3CC[C@H](O)[C@@]3(C)CC[C@@H]2[C@@]2(C)C=CC(=O)C=C12` [17-dihydroexemestane], for which the Michaelis constant (Km) is 14 ± 3.9 µM on UGT1A8; 15 ± 2.7 µM on UGT2B17; 34 ± 3.9 µM at UGT1A4^24Pro/48Leu (UGT1A4 24Pro/48Leu); 28 ± 7.8 µM on UGT1A4^24Thr/48Leu; 36 ± 5.4 µM on UGT1A4^24Pro/48Val. Besides, the Vmax on UGT1A8 (normalized per μg UGT protein) worked out at 0.30 ± 0.06 pmol/min/μg UGT protein; on UGT2B17 (normalized per μg UGT protein), 2.0 ± 0.25 pmol/min/μg UGT protein; on UGT1A4^24Pro/48Leu (UGT1A4 24Pro/48Leu, normalized per μg UGT protein), 0.27 ± 0.01 pmol/min/μg UGT protein; on UGT1A4^24Thr/48Leu (normalized per μg UGT protein), 0.26 ± 0.04 pmol/min/μg UGT protein; on UGT1A4^24Pro/48Val (normalized per μg UGT protein) it was 0.40 ± 0.03 pmol/min/μg UGT protein. Further, the “glucuronidation activity in UGT screen” value on UGT1A8 (up to 600 μmol/l substrate) was “detectable activity”; on UGT2B17 (up to 600 μmol/l substrate), “detectable activity”; at UGT1A4^24Pro/48Leu (UGT1A4, up to 600 μmol/l substrate) it was “detectable activity”; in series [2], “None of the other UGTs screened in our assays exhibited any glucuronidation activity”. Further, in series [3], the “plasma level as share of parent exemestane” value was 35–40%.
